# PMC1885804, “Preferential inhibition of xanthine oxidase by 2-amino-6-hydroxy-8-mercaptopurine and 2-amino-6-purine thiol” (BMC Biochemistry, 2007)
# Read-outs that look alike come from different tables or passages of the source.
# What was measured:
# XOD [1] = target: T1, XOD (Bos taurus, UniProt P80457); set-up: Bovine milk XOD was procured from Calbiochem (La Jolla, CA, USA); purchased Calbiochem (La Jolla, CA, USA); host or cells: bovine milk; settings: cited from earlier work
# bovine XOD [2] = target: T2, bovine XOD (Bos taurus, UniProt P80457); test: IC50 determination, XOD-catalyzed hydroxylation (uric acid at 293 nm, 6TUA at 350 nm); type: biochemical; settings: for IC50: 2.8 U/ml bovine XOD, ± SEM
# T2 construct: Bovine milk XOD was procured from Calbiochem (La Jolla, CA, USA); purchased Calbiochem (La Jolla, CA, USA); host or cells: bovine milk
# T2 sequence (P80457 whole entry): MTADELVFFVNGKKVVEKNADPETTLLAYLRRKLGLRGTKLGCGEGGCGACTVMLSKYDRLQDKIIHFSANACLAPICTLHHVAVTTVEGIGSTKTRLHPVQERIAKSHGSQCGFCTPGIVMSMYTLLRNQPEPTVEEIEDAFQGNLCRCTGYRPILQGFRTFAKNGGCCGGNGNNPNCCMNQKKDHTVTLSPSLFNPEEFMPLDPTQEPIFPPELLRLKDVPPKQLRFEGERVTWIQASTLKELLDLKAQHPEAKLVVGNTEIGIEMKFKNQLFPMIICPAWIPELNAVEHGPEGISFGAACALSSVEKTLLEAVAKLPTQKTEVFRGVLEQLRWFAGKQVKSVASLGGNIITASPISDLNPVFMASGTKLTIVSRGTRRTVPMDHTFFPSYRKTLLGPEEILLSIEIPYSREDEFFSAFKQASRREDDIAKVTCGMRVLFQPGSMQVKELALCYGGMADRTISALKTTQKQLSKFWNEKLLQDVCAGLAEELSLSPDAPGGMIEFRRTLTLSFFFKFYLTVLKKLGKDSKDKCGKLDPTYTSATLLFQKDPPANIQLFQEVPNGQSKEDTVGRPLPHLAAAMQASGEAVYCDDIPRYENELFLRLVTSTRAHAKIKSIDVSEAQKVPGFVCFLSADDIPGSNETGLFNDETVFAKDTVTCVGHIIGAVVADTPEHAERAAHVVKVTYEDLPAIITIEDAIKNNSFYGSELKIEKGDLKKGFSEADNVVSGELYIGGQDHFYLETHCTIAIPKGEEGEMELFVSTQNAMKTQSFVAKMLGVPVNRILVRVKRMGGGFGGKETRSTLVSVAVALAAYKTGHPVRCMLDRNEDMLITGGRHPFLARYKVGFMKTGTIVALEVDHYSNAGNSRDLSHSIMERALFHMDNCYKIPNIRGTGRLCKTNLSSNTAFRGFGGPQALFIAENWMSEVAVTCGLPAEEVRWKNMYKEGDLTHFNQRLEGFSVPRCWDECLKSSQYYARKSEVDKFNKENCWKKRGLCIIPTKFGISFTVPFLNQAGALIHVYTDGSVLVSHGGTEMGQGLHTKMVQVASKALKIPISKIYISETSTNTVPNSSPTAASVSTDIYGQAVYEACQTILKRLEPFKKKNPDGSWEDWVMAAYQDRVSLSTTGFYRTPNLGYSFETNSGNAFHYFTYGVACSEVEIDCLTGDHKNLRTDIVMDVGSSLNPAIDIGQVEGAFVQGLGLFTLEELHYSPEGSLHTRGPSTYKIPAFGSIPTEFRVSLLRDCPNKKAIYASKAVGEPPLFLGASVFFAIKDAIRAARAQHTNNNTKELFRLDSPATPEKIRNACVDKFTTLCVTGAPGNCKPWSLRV
# Protocol: One enzyme unit is defined as amount of enzyme required to produce 1 μM uric acid per min per ml reaction mixture from 10 μM of xanthine at 30°C, pH 7.4.
# The IC50 values were determined for all the purine and pyrazolopyrimidine-based compounds. […] GRAFIT software procured from Erithacus Software Limited, UK, written by Dr R.J. Leatherbarrow, was employed for calculating the IC50 values.
# bovine XOD [3] = target: T2, bovine XOD; test: Steady-state kinetics of XOD (Michaelis Menten and Lineweaver Burk plots); type: biochemical
# Protocol: The double reciprocal Lineweaver Burk (LB) plots were drawn to find the mechanism of inhibition of XOD by APT and AHMP (Figure 6, 7, 8, 9).
# (§1) Percent residual activity of formation of uric acid and 6TUA was determined by subtracting the percentage inhibition from 100%. […] Km and kcat were determined in the absence of the inhibitors.
# For competitive inhibition,
# -1/Km app = -1/Km (1+ [I]/Ki)
# For non-competitive inhibition,
# 1/Vmax app = (1+ [I]/Ki)/Vmax
# The modified LB equation for the mixed inhibition is
# 1/v = 1/Vmax app + […]/Vmax app [S]0
# where, Km app and Vmax app are defined by equations (4) and (5).
# Km app = Km {1+([I0]/Ki)}/{1+ ([I0]/KI)}
# Vmax app = Vmax/{1+ ([I0]/KI)}
# Km app is the apparent Michaelis constant and Vmax app is the apparent maximum velocity of the reaction of XOD with its substrates. Ki and KI are the inhibition constants of the inhibitors.
# bovine XOD [4] = target: T2, bovine XOD; test: In vitro bi-substrate (xanthine + 6MP) simulative experiment, percent residual XOD activity; type: biochemical; settings: for Inhibition of 6MP hydroxylation, bi-substrate reaction / Inhibition of xanthine hydroxylation, bi-substrate reaction: observed for 20 min
# Protocol: Percent residual activity for generation of uric acid and 6TUA was determined in the presence of various concentrations of AHMP, APT and allopurinol (Table 2). […] Absorption spectra of the time dependent XOD-mediated bi-substrate reaction in the presence of APT and AHMP are depicted in Figure 4 and Figure 5, respectively.
# as §1
# swiss male mice = test: Single dose acute toxicity study, fourteen days observation; type: in vivo
# Protocol: In order to evaluate the toxicity of the preferential inhibitors of XOD, the single dose acute toxicity study was performed for both the preferential inhibitors on swiss male mice following a fourteen days observation period. The body weight of the animal ranged from 25–30 gm. […] Gross necropsy of each animal of all groups was conducted and organ weight was recorded after the termination of the study.
# XOD [5] = target: T1, XOD; test: In vitro tri-substrate (hypoxanthine, xanthine, 6MP) simulative study; type: biochemical; set-up: Bovine milk XOD was procured from Calbiochem (La Jolla, CA, USA); purchased Calbiochem (La Jolla, CA, USA); host or cells: bovine milk; settings: xanthine and 6MP together, data not shown
# XOD and XDH = test system: XOD and XDH; set-up: method as in doi:10.1016/0006-2952(63)90012-1; settings: at doses that produced significant toxic effects; cited from earlier work
# [6] = set-up: method as in doi:10.1016/0006-2952(63)90012-1, doi:10.1016/0002-9343(66)90118-5, PMID 14070377; settings: combination with 6MP; cited from earlier work
# XOD [7] = target: T1, XOD
# [8] = 10 μM hypoxanthine, 0.2 M sodium phosphate buffer pH 7.4, read-out: IC50, XOD inhibition, substrate hypoxanthine
# [9] = 10 μM xanthine, pH 7.4, read-out: IC50, XOD inhibition, substrate xanthine (xanthine to uric acid)
# [10] = IC50, XOD inhibition, substrate 6MP (6MP to 6TUA), 10 μM 6MP, pH 7.4, 60 min reaction
# [11] = substrate 6MP, read-out: Ki (competitive inhibition constant; Ki^1 for APT, Ki^2 for AHMP)
# [12] = substrate xanthine, read-out: Ki (competitive inhibition constant; Ki^1 for APT, Ki^2 for AHMP)
# [13] = read-out: % Activity with 6MP as substrate
# [14] = read-out: % Activity with xanthine as substrate
# [15] = read-out: % Activity with xanthine as substrate (converted)
# [16] = single dose 2.5, 5, 10 mg/kg intravenously, mice, fourteen days
# [17] = single dose 2.5, 5, 10 mg/kg intravenously, mice
# T1 sequence (P80457 whole entry): as above
compound,measurement,setting,value
O=c1c(O)c(-c2ccccc2)oc2cc(O)cc(O)c12 [Galagin],Type of XOD inhibition,XOD [1],mixed type of inhibition
"Nc1nc2nc[nH]c2c(=S)[nH]1 [APT, 2-amino-6-purinethiol]",Difference in the IC50 value in the first and the late phases,bovine XOD [2],no such difference
same,Whether the compound is an XOD substrate,bovine XOD [2],none were found to be XOD substrates
same,IC50,bovine XOD [2]; [8],7.28 ± 0.17 µM
same,IC50,bovine XOD [2]; [9],16.4 ± 0.21 µM
same,IC50,bovine XOD [2]; [10],2.57 ± 0.08 µM
same,Mechanism of inhibition,bovine XOD [3]; substrate 6MP,competitive inhibition mechanism
same,Ki,bovine XOD [3]; [11],1.3 ± 0.09 µM
same,Mechanism of inhibition,bovine XOD [3]; substrate xanthine,Competitive
same,Ki,bovine XOD [3]; [12],6.61 ± 0.28 µM
same,"Inhibition of 6MP hydroxylation, bi-substrate reaction",bovine XOD [4]; inhibitor 5 μM,Almost complete inhibition
same,"Inhibition of xanthine hydroxylation, bi-substrate reaction",bovine XOD [4]; inhibitor 5 μM,little inhibition
same,activity at 0.5 µM,bovine XOD [4]; [13],73 ± 2.5%
same,activity at 1 µM,bovine XOD [4]; [13],66%
same,activity at 2.5 µM,bovine XOD [4]; [13],25%
same,activity at 0.5 µM,bovine XOD [4]; [14],96 ± 1%
same,activity at 1 µM,bovine XOD [4]; [15],90%
same,activity at 2.5 µM,bovine XOD [4]; [15],80%
same,Gross necropsy,"swiss male mice; mouse, in vivo",no changes in vital organs
same,Organ weight as compared with the control groups,"swiss male mice; mouse, in vivo",No difference in organ weight
same,Mortality,swiss male mice; [16],no mortality
same,Discriminatory inhibition in tri-substrate simulative study,XOD [5],discriminatory inhibition of the 6MP to 6TUA conversion and not hypoxanthine to uric acid conversion
"O=c1[nH]c(=O)c2nc[nH]c2[nH]1 [Xanthine, xanthine]",Vmax (maximum reaction velocity),bovine XOD [3],114.54 ± 0.24 µM/min
NNC(N)=O [semicarbazide],Inhibition of XOD and XDH in vivo,XOD and XDH,less than 50%
O=c1c(O)c(-c2ccc(O)cc2O)oc2cc(O)cc(O)c12 [Morin],Type of XOD inhibition,XOD [1],mixed type of inhibition
"Sc1ncnc2nc[nH]c12 [6MP, 6-mercaptopurine]",Vmax (maximum reaction velocity),bovine XOD [3],2.85 ± 0.02 µM/min
"Nc1ncnc2[nH]ncc12 [APP, 4-aminopyrazolo 3,4-d pyrimidine]",Preferential inhibition of the 6MP hydroxylation over xanthine,bovine XOD [2],did not exhibit any preferential inhibition
same,IC50,bovine XOD [2]; [8],6.79 ± 0.28 µM
same,IC50,bovine XOD [2]; [9],20.8 ± 0.84 µM
same,IC50,"bovine XOD [2]; read-out: IC50, XOD inhibition, substrate 6MP (6MP to 6TUA), 10 μM 6MP, pH 7.4, 60 min reaction",12.9 ± 0.69 µM
COc1cc(-c2cnn3c(=O)nc[n-]c23)ccc1[S+]([O-])c1ccccc1.[Na+] (stereo not drawn) [BOF-4272],Type of XOD inhibition,XOD [1],mixed type of inhibition
O=C(Nc1ncnc2nc[nH]c12)c1ccccc1 [6-(N-benzoylamino)purine],Preferential inhibition of the 6MP hydroxylation over xanthine,bovine XOD [2],did not exhibit any preferential inhibition
"Nc1nc2[nH]c(S)nc2c(=O)[nH]1 [AHMP, 2-amino-6-hydroxy-8-mercaptopurine]",Difference in the IC50 value in the first and the late phases,bovine XOD [2],no such difference
same,Whether the compound is an XOD substrate,bovine XOD [2],none were found to be XOD substrates
same,IC50,bovine XOD [2]; [8],5.08 ± 0.04 µM
same,IC50,bovine XOD [2]; [9],17.7 ± 0.29 µM
same,IC50,bovine XOD [2]; [10],0.54 ± 0.01 µM
same,Mechanism of inhibition,bovine XOD [3]; substrate 6MP,mixed inhibition mechanism
same,Ki,"bovine XOD [3]; substrate 6MP, read-out: KI^2 (non-competitive inhibition constant) (converted)",0.98 µM
same,Ki,bovine XOD [3]; [11],0.96 ± 0.01 µM
same,Mechanism of inhibition,bovine XOD [3]; substrate xanthine,mixed type of inhibition
same,Ki,"bovine XOD [3]; substrate xanthine, read-out: KI^2 (non-competitive inhibition constant) (converted)",6.24 µM
same,Ki,bovine XOD [3]; [12],5.78 ± 0.48 µM
same,"Inhibition of 6MP hydroxylation, bi-substrate reaction",bovine XOD [4]; inhibitor 2 μM,Almost complete inhibition
same,"Inhibition of xanthine hydroxylation, bi-substrate reaction",bovine XOD [4]; inhibitor 2 μM,little inhibition
same,activity at 0.5 µM,bovine XOD [4]; [13],59 ± 4.01%
same,activity at 1 µM,bovine XOD [4]; [13],47%
same,activity at 2.5 µM,bovine XOD [4]; [13],18%
same,activity at 0.5 µM,bovine XOD [4]; [14],90 ± 1.09%
same,activity at 1 µM,bovine XOD [4]; [15],85%
same,activity at 2.5 µM,bovine XOD [4]; [15],64%
same,Gross necropsy,swiss male mice; after termination of the study,no changes in vital organs
same,Organ weight as compared with the control groups,swiss male mice; after termination of the study,No difference in organ weight
same,Food intake as compared to allopurinol treated groups,swiss male mice; [17],marginally less
same,Weekly food intake as compared to vehicle treated groups,swiss male mice; [17],decreased
same,Changes in the initial and final body weight,swiss male mice; [16],No significant changes
same,General behavioral toxicity,swiss male mice; [16],No differences in general behavioral toxicity
same,Discriminatory inhibition in tri-substrate simulative study,XOD [5],discriminatory inhibition of the 6MP to 6TUA conversion and not hypoxanthine to uric acid conversion
"Oc1ncnc2[nH]ncc12 [ALLOPURINOL, allopurinol]",activity at 0.5 µM,bovine XOD [4]; [13],83 ± 1.05%
same,activity at 1 µM,bovine XOD [4]; [13],48%
same,activity at 2.5 µM,bovine XOD [4]; [13],16%
same,activity at 0.5 µM,bovine XOD [4]; [14],95 ± 1.09%
same,activity at 1 µM,bovine XOD [4]; [14],68%
same,activity at 2.5 µM,bovine XOD [4]; [14],30%
same,Potentiation of the antitumor and immunosuppressive properties of 6MP,[6],three to four
same,Substrate-induced enzymatic electron transfer / ROS generation on interaction with XOD,XOD [7],led to substrate-induced enzymatic electron transfer via DCPIP
same,Gross necropsy,"swiss male mice; mouse, in vivo",no changes in vital organs
same,Organ weight as compared with the control groups,"swiss male mice; mouse, in vivo",No difference in organ weight
same,Mortality,swiss male mice; [16],no mortality
